Laboratory results taken from US20190343822A1, “TREATMENT FOR GLAUCOMA” (INDIANA UNIVERSITY RESEARCH AND TECHNOLOGY CORPORATION, priority 2018, published 2019).

Tests used:
mice [1] = test: Intraocular pressure (IOP) in mice by rebound tonometry (Tonolab); assay type: in vivo
Method: IOP was measured in mice by rebound tonometry, using a Tonolab (Icare Finland Oy, Helsinki, Finland). This instrument uses a light plastic-tipped probe to briefly make contact with the cornea; after the probe encounters the eye the instrument measures the speed at which the probe rebounds in order to calculate IOP.
(§1) To obtain reproducible IOP measurements, mice were anesthetized with isoflurane (3% induction). The anesthetized mouse was then placed on a platform in a prone position, where anesthesia was maintained with 2% isoflurane. Baseline fop measurements are taken in both eyes. A ‘measurement’ included the average value of six readings. One eye was then treated with drug (dissolved in Tocrisolve (Tocris Biosciences), a soya-based solvent, 5 μL final volume, applied topically) while the other eye was treated with vehicle. The animal was then allowed to recover. After an hour the animal was again anesthetized as above. IOP was then measured in the drug-treated and vehicle-treated contralateral eye.
IOP measurements following drug administration were analyzed by paired t-tests comparing drug-treated eyes to contralateral vehicle-treated eyes. Where animals were injected with drug, ocular pressures of animals were compared with those of vehicle-injected animals and compared using an unpaired t-test.

mice [2] = test: as above; assay type: in vivo; remark: listed apart in the source
[3] = Observation of signs of irritation after 7 days of daily topical treatment; assay type: in vivo, mice; conditions: after the 7 days of daily treatment, SR141716 1 mM topical
Method: as §1
The outcome of repeated daily treatment with SR1 was tested separately. […] The IOP was also lower in the vehicle treated eye but this difference was not statistically significant.

Structure (SMILES): O=C(Nc1ccc(Cl)cc1)Nc1cccc(-c2cccc(N3CCCC3)n2)c1 [PSNCBAM1, 1-(4-chlorophenyl)-3-(3-(6-(pyrrolidin-1-yl)pyridin-2-yl)phenyl)urea]
- IOP (mm Hg±SEM) 1 hour after intraperitoneal injection (mice [1]; PSNCBAM1 4 mg/kg IP, 1 hour, n=16, baseline IOP 19.6±0.4, p<0.005, FIG. 3B): 17.3±0.5 mm Hg
- IOP (mm Hg±SEM) in drug-treated eye after topical treatment (mice [1]; PSNCBAM1 5 mM topical, WT mice, n=8, not significant vs vehicle-treated eye 17.4±0.7, FIG. 3A): 18.0±0.6 mm Hg
- Effect of intraperitoneal injection on ocular pressure (mice [1]; intraperitoneal injection, FIG. 3B): lowered ocular pressure
- Effect of topical treatment on ocular pressure relative to the contralateral eye (mice [1]; topical, WT mice, FIG. 3A): did not lower ocular pressure

Structure (SMILES): Cc1c(C(=O)NN2CCCCC2)nn(-c2ccc(Cl)cc2Cl)c1-c1ccc(Cl)cc1 [SR141716, 5-(4-Chlorophenyl)-1-(2,4-dichloro-phenyl)-4-methyl-N-(piperidin-1-yl)-1H-pyrazole-3-carboxamide]
- Δ IOP±SEM, drug-treated eye before 7th treatment (24 hours after 6th daily treatment) (mice [2]; SR141716 1 mM topical daily, 7 days, drug-treated eye, n=8, p<0.05, FIG. 4B): −2.9±1.0 mm Hg
- Δ IOP±SEM, effect at 24 hrs after a single treatment (mice [2]; SR141716 1 mM topical, single treatment, 24 hrs, n=16, FIG. 4A): −0.3±0.3 mm Hg
- Δ IOP±SEM, effect at 48 hrs after a single treatment (mice [2]; SR141716 1 mM topical, single treatment, 48 hrs, n=16, p<0.005, FIG. 4A): +2.0±0.6 mm Hg
- Δ IOP±SEM, effect in drug-treated eye after seven days of daily treatment (mice [1]; SR141716 1 mM topical, 7th day of daily treatment, n=8, p<0.005, FIG. 4C): −4.6±0.9 mm Hg
- Δ IOP±SEM, effect at 1 day in drug-treated eye (mice [1]; SR141716 1 mM topical, day 1 of daily treatment, n=8, FIG. 4C): −2.8±0.6 mm Hg
- Effect on intraocular pressure at midday, standard light cycle (mice [1]; SR141716 1 mM, midday, mice in standard light cycle, FIG. 1B): raised intraocular pressure
- Effect on intraocular pressure at midnight, reverse light cycle (mice [1]; SR141716 1 mM, midnight, mice in reverse light cycle): reduced intraocular pressure
- Effect of daily treatments on ocular pressure (mice [1]; daily treatments over 7 days, FIG. 2C): sustained lower ocular pressure
- Signs of irritation [3]: No signs of irritation were observed
